Results on seven compounds are retold here after PubChem BioAssay (NCI).

Some test systems named below: RPMI-8226 leukemia; UACC-62 melanoma; HT29 colon; A498 renal; SK-MEL-28 melanoma; OVCAR-3 ovarian; OVCAR-4 ovarian; SF-268 CNS; BT-549 breast; SK-OV-3 ovarian.
Common to all, as to assay: NCI anticancer screen, dose series, 48 h

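The compound was tested at five concentrations on cells cultured in 96-well plates, with a 48-hour exposure period. Here, GI50 denotes the concentration required for 50% inhibition of growth. TGI is the concentration that stops growth completely.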

`COc1cc2c3c(n(CCN4CCOCC4)c(=O)c2cc1OC)-c1ccccc1C3=O`: the GI50 in the assay on RPMI-8226 leukemia was 81 µM; in the assay on UACC-62 melanoma it was 56.8 µM; with HT29 colon, above 100 µM; in the assay with A498 renal, 85.7 µM; in the assay on SK-MEL-28 melanoma, above 100 µM; in the assay with OVCAR-3 ovarian, above 100 µM. Moreover, the GI50 with OVCAR-4 ovarian is above 100 µM; in the assay on SF-268 CNS, above 100 µM; in the assay with BT-549 breast, above 100 µM; in the assay with SK-OV-3 ovarian, 90.4 µM. Moreover, the TGI in the assay with RPMI-8226 leukemia, in the assay on UACC-62 melanoma, with HT29 colon, in the assay on A498 renal, with SK-MEL-28 melanoma and with OVCAR-3 ovarian was above 100 µM throughout. The TGI in the assay with OVCAR-4 ovarian, in the assay on SF-268 CNS, in the assay on BT-549 breast and with SK-OV-3 ovarian was above 100 µM in each case.

On to `OC(CN1CCCC2CCCCC21)c1cc2ccccc2c2ccccc12` (centres undefined), for which the GI50 is 1.6 µM in the assay on RPMI-8226 leukemia; 2.32 µM with UACC-62 melanoma; 1.32 µM in the assay with HT29 colon; 2.21 µM in the assay on A498 renal; 2.06 µM in the assay on SK-MEL-28 melanoma; 2.82 µM with OVCAR-3 ovarian. For the same compound, the GI50 is 2.39 µM with OVCAR-4 ovarian, 3.64 µM in the assay with SF-268 CNS, 1.54 µM in the assay on BT-549 breast and 3.16 µM with SK-OV-3 ovarian. Moreover, the TGI in the assay on RPMI-8226 leukemia amounted to 3.87 µM; with UACC-62 melanoma, 6.58 µM; with HT29 colon, 3.07 µM; in the assay with A498 renal, 5.8 µM; with SK-MEL-28 melanoma, 4.36 µM; with OVCAR-3 ovarian, 8.54 µM. Further, the TGI with OVCAR-4 ovarian is 12.4 µM; with SF-268 CNS, 13.7 µM; in the assay on BT-549 breast, 4.06 µM; in the assay with SK-OV-3 ovarian, 10.8 µM.

`COc1cccc(N2CCN(c3ncnc4cc[nH]c34)CC2)c1`: the GI50 with RPMI-8226 leukemia is 2.78 µM; in the assay with UACC-62 melanoma it was 6.05 µM; with HT29 colon, 20 µM; in the assay on A498 renal, 1.65 µM; in the assay with SK-MEL-28 melanoma, 10.7 µM; in the assay with OVCAR-3 ovarian, 9.51 µM. Moreover, the GI50 with OVCAR-4 ovarian was 1.73 µM; in the assay with SF-268 CNS it was 14.9 µM; in the assay with BT-549 breast, 2.66 µM; in the assay on SK-OV-3 ovarian, 51.5 µM. The TGI was 94.8 µM with RPMI-8226 leukemia; 39.8 µM with UACC-62 melanoma; above 100 µM with HT29 colon; 79.3 µM in the assay with A498 renal; 62.3 µM in the assay with SK-MEL-28 melanoma; above 100 µM with OVCAR-3 ovarian. The TGI with OVCAR-4 ovarian is above 100 µM; in the assay with SF-268 CNS, above 100 µM; in the assay with BT-549 breast, 26.8 µM; with SK-OV-3 ovarian, above 100 µM.

In the case of `CC1=NN(c2cccc(Cl)c2)C(=O)/C1=C\C=C\c1ccccc1`, the GI50 with RPMI-8226 leukemia was 2.91 µM; in the assay on UACC-62 melanoma it was 1.76 µM; in the assay with HT29 colon, 2.98 µM; with A498 renal, 17.7 µM; in the assay with SK-MEL-28 melanoma, 2.09 µM; with OVCAR-3 ovarian, 2.18 µM. The GI50 in the assay with OVCAR-4 ovarian is 3.37 µM; in the assay with SF-268 CNS it was 2.36 µM; in the assay with BT-549 breast it was 1.64 µM; in the assay with SK-OV-3 ovarian it was 3.21 µM. Besides, the TGI in the assay on RPMI-8226 leukemia was 14.3 µM; in the assay on UACC-62 melanoma, 3.87 µM; in the assay with HT29 colon, 7.4 µM; in the assay on A498 renal, above 100 µM; in the assay on SK-MEL-28 melanoma it was 4.3 µM; with OVCAR-3 ovarian, 4.4 µM. Further, the TGI in the assay on OVCAR-4 ovarian is above 100 µM; with SF-268 CNS, 6.91 µM; in the assay on BT-549 breast, 3.17 µM; in the assay on SK-OV-3 ovarian, 9.93 µM.

Take `Cc1ccc(-c2c3c(nn2-c2ccc(S(=O)(=O)NC(=O)NC4CCCCC4)cc2)-c2ccccc2C3)cc1`: the GI50 was 2.44 µM with RPMI-8226 leukemia; 16.9 µM with UACC-62 melanoma; 24.3 µM with HT29 colon; 18.3 µM in the assay on SK-MEL-28 melanoma; 17.7 µM in the assay on OVCAR-3 ovarian; 18.2 µM in the assay with OVCAR-4 ovarian. Also, the GI50 in the assay on SF-268 CNS was 11.5 µM; in the assay on BT-549 breast it was 11.4 µM; in the assay with SK-OV-3 ovarian, 18.9 µM. Moreover, the TGI in the assay on RPMI-8226 leukemia was 7.42 µM; in the assay on UACC-62 melanoma, 32.2 µM; with HT29 colon, above 100 µM; with A498 renal, 20 µM; with SK-MEL-28 melanoma, 37.5 µM; with OVCAR-3 ovarian, 35.7 µM. Further, the TGI was determined as 39.7 µM in the assay with OVCAR-4 ovarian, 28.6 µM with SF-268 CNS, 26.5 µM in the assay on BT-549 breast and 42.4 µM in the assay on SK-OV-3 ovarian.

Turning to `COC(=O)c1c2c(c(C)[n+]([O-])c1C)C(=O)C(NCc1ccc(F)cc1)=CC2=O`, the GI50 was 2 µM in the assay on RPMI-8226 leukemia; 1.25 µM in the assay on UACC-62 melanoma; 0.711 µM in the assay on HT29 colon; 1.57 µM in the assay with A498 renal; 3.2 µM with SK-MEL-28 melanoma; 0.319 µM with OVCAR-3 ovarian. For the same compound, the GI50 was 0.519 µM in the assay on OVCAR-4 ovarian, 2.51 µM in the assay with SF-268 CNS, 1.73 µM in the assay on BT-549 breast and 2.92 µM in the assay with SK-OV-3 ovarian. The TGI is 6.82 µM in the assay on RPMI-8226 leukemia; 2.65 µM in the assay with UACC-62 melanoma; above 100 µM in the assay on HT29 colon; 3.29 µM with A498 renal; 15.6 µM with SK-MEL-28 melanoma; 1.11 µM in the assay on OVCAR-3 ovarian. Also, the TGI stood at 1.87 µM in the assay with OVCAR-4 ovarian, 9.08 µM in the assay with SF-268 CNS, 3.78 µM with BT-549 breast and 9.11 µM in the assay with SK-OV-3 ovarian.

On to `CC(C)c1[nH]nc2c(NCc3ccc(-c4ccccn4)cc3)nc(SCCN(C)C)nc12`, for which the GI50 in the assay on RPMI-8226 leukemia was 0.0195 µM; in the assay on UACC-62 melanoma, 0.0427 µM; in the assay with HT29 colon it was below 0.0158 µM; with A498 renal it was 0.0563 µM; with SK-MEL-28 melanoma, 0.0226 µM; in the assay on OVCAR-3 ovarian, 0.0754 µM. Also, the GI50 with OVCAR-4 ovarian is 0.0349 µM; with SF-268 CNS, below 0.018 µM; in the assay with BT-549 breast, 0.0194 µM; in the assay on SK-OV-3 ovarian it was 0.106 µM. Also, the TGI in the assay with RPMI-8226 leukemia worked out at 0.101 µM; with UACC-62 melanoma, 0.4 µM; in the assay on HT29 colon, 1.21 µM; with A498 renal it was 0.164 µM; in the assay on SK-MEL-28 melanoma, 0.21 µM; in the assay with OVCAR-3 ovarian it was 10.9 µM. Further, the TGI with OVCAR-4 ovarian amounted to 1.53 µM; in the assay on SF-268 CNS it was 3.68 µM; with BT-549 breast it was 0.217 µM; in the assay with SK-OV-3 ovarian, 11.5 µM.
